Measured values from ChEMBL document CHEMBL3045699, “Three-dimensional quantitative structureactivity relationship approach for the prediction of the antimycobacterial activity of 4-oxo-dihydroquinoline-3-carboxylic acid derivatives” (2008).
Values after ≈ are worked out from the molar mass of the structure shown.

Test system: Mycobacterium tuberculosis
Assay: Antimycobacterial activity against Mycobacterium tuberculosis
Assay type: functional
Conditions: for MIC: Mycobacterium tuberculosis

SMILES	log(1/C)	MIC
CC1CN(c2ccc3c(=O)c(C(=O)O)cn(-c4c(F)cccc4F)c3c2)CCN1 (configuration not stated)	2.922	1.2 µM (≈ 0.478 µg/mL)
CC1CN(c2ccc3c(=O)c(C(=O)O)cn(C(C)(C)C)c3c2)CCN1 (configuration not stated)	3.78	0.166 µM (≈ 0.057 µg/mL)
CC1CN(c2ccc3c(=O)c(C(=O)O)cn(C(C)(C)C)c3c2)CC(C)N1 (configuration not stated)	3.796	0.16 µM (≈ 0.0572 µg/mL)
CCN1CCN(c2ccc3c(=O)c(C(=O)O)cn(C(C)(C)C)c3c2)CC1	3.461	0.346 µM (≈ 0.124 µg/mL)
CC(C)(C)n1cc(C(=O)O)c(=O)c2ccc(N3CCC(N)C3)cc21 (configuration not stated)	3.427	0.374 µM (≈ 0.123 µg/mL)
CNCC1CCN(c2ccc3c(=O)c(C(=O)O)cn(C(C)(C)C)c3c2)C1 (configuration not stated)	3.177	0.666 µM (≈ 0.238 µg/mL)
CC(C)n1cc(C(=O)O)c(=O)c2ccc(N3CCNCC3)cc21	1.921	12 µM (≈ 3.78 µg/mL)
CC1CN(c2ccc3c(=O)c(C(=O)O)cn(C(C)C)c3c2)CCN1 (configuration not stated)	2.24	5.76 µM (≈ 1.9 µg/mL)
CC1CN(c2ccc3c(=O)c(C(=O)O)cn(C(C)C)c3c2)CC(C)N1 (configuration not stated)	2.257	5.53 µM (≈ 1.9 µg/mL)
CCN1CCN(c2ccc3c(=O)c(C(=O)O)cn(C(C)C)c3c2)CC1	1.956	11.1 µM (≈ 3.8 µg/mL)
CC(C)n1cc(C(=O)O)c(=O)c2ccc(N3CCC(N)C3)cc21 (configuration not stated)	2.222	6 µM (≈ 1.89 µg/mL)
CNCC1CCN(c2ccc3c(=O)c(C(=O)O)cn(C(C)C)c3c2)C1 (configuration not stated)	1.655	22.1 µM (≈ 7.6 µg/mL)
O=C(O)c1cn(C2CCC2)c2cc(N3CCNCC3)ccc2c1=O	2.237	5.79 µM (≈ 1.9 µg/mL)
CC1CN(c2ccc3c(=O)c(C(=O)O)cn(C4CCC4)c3c2)CCN1 (configuration not stated)	2.556	2.78 µM (≈ 0.95 µg/mL)
CC1CN(c2ccc3c(=O)c(C(=O)O)cn(C4CCC4)c3c2)CC(C)N1 (configuration not stated)	2.873	1.34 µM (≈ 0.476 µg/mL)
CCN1CCN(c2ccc3c(=O)c(C(=O)O)cn(C4CCC4)c3c2)CC1	2.271	5.36 µM (≈ 1.9 µg/mL)
NC1CCN(c2ccc3c(=O)c(C(=O)O)cn(C4CCC4)c3c2)C1 (configuration not stated)	2.556	2.78 µM (≈ 0.911 µg/mL)
CNCC1CCN(c2ccc3c(=O)c(C(=O)O)cn(C4CCC4)c3c2)C1 (configuration not stated)	1.97	10.7 µM (≈ 3.81 µg/mL)
O=C(O)c1cn(-c2c(F)cccc2F)c2cc(N3CCNCC3)ccc2c1=O	2.907	1.24 µM (≈ 0.478 µg/mL)
CN1CCN(c2ccc3c(=O)c(C(=O)O)cn(-c4c(F)cccc4F)c3c2)CC1	2.922	1.2 µM (≈ 0.478 µg/mL)
CC1CN(c2ccc3c(=O)c(C(=O)O)cn(-c4c(F)cccc4F)c3c2)CC(C)N1 (configuration not stated)	2.936	1.16 µM (≈ 0.479 µg/mL)
CCC1CN(c2ccc3c(=O)c(C(=O)O)cn(-c4c(F)cccc4F)c3c2)CCN1 (configuration not stated)	2.635	2.32 µM (≈ 0.958 µg/mL)
CCN1CCN(c2ccc3c(=O)c(C(=O)O)cn(-c4c(F)cccc4F)c3c2)CC1	2.635	2.32 µM (≈ 0.958 µg/mL)
CC(C)N1CCN(c2ccc3c(=O)c(C(=O)O)cn(-c4c(F)cccc4F)c3c2)CC1	2.649	2.25 µM (≈ 0.96 µg/mL)
CC(C)CN1CCN(c2ccc3c(=O)c(C(=O)O)cn(-c4c(F)cccc4F)c3c2)CC1	2.06	8.71 µM (≈ 3.84 µg/mL)
CCCCN1CCN(c2ccc3c(=O)c(C(=O)O)cn(-c4c(F)cccc4F)c3c2)CC1	2.361	4.35 µM (≈ 1.92 µg/mL)

SMILES	log(1/C)	MIC
NC1CCN(c2ccc3c(=O)c(C(=O)O)cn(-c4c(F)cccc4F)c3c2)C1 (configuration not stated)	3.492	0.322 µM (≈ 0.124 µg/mL)
CNCC1CCN(c2ccc3c(=O)c(C(=O)O)cn(-c4c(F)cccc4F)c3c2)C1 (configuration not stated)	3.237	0.579 µM (≈ 0.239 µg/mL)
CCNCC1CCN(c2ccc3c(=O)c(C(=O)O)cn(-c4c(F)cccc4F)c3c2)C1 (configuration not stated)	2.95	1.12 µM (≈ 0.48 µg/mL)
CCCn1cc(C(=O)O)c(=O)c2ccc(N3CCNCC3)cc21	2.203	6.26 µM (≈ 1.98 µg/mL)
CCCn1cc(C(=O)O)c(=O)c2ccc(N3CCNC(C)C3)cc21 (configuration not stated)	2.222	6 µM (≈ 1.98 µg/mL)
CCCn1cc(C(=O)O)c(=O)c2ccc(N3CC(C)NC(C)C3)cc21 (configuration not stated)	2.541	2.88 µM (≈ 0.989 µg/mL)
CCCn1cc(C(=O)O)c(=O)c2ccc(N3CCN(CC)CC3)cc21	2.842	1.44 µM (≈ 0.494 µg/mL)
CCCn1cc(C(=O)O)c(=O)c2ccc(N3CCC(N)C3)cc21 (configuration not stated)	1.902	12.5 µM (≈ 3.95 µg/mL)
CCCn1cc(C(=O)O)c(=O)c2ccc(N3CCC(CNC)C3)cc21 (configuration not stated)	1.638	23 µM (≈ 7.91 µg/mL)
CC(C)(C)n1cc(C(=O)O)c(=O)c2ccc(N3CCNCC3)cc21	3.427	0.374 µM (≈ 0.123 µg/mL)
CCC1CN(c2ccc3c(=O)c(C(=O)O)cn(C4CC4)c3c2)CCN1 (configuration not stated)	3.158	0.696 µM (≈ 0.238 µg/mL)
CCN1CCN(c2ccc3c(=O)c(C(=O)O)cn(C4CC4)c3c2)CC1	3.442	0.362 µM (≈ 0.124 µg/mL)
CC(C)N1CCN(c2ccc3c(=O)c(C(=O)O)cn(C4CC4)c3c2)CC1	3.174	0.669 µM (≈ 0.238 µg/mL)
CC(C)CN1CCN(c2ccc3c(=O)c(C(=O)O)cn(C4CC4)c3c2)CC1	3.19	0.645 µM (≈ 0.238 µg/mL)
CCCCN1CCN(c2ccc3c(=O)c(C(=O)O)cn(C4CC4)c3c2)CC1	2.889	1.29 µM (≈ 0.477 µg/mL)
CNCC1CCN(c2ccc3c(=O)c(C(=O)O)cn(C4CC4)c3c2)C1 (configuration not stated)	2.857	1.39 µM (≈ 0.475 µg/mL)
CCNCC1CCN(c2ccc3c(=O)c(C(=O)O)cn(C4CC4)c3c2)C1 (configuration not stated)	2.873	1.34 µM (≈ 0.476 µg/mL)
CC(C)NCC1CCN(c2ccc3c(=O)c(C(=O)O)cn(C4CC4)c3c2)C1 (configuration not stated)	2.889	1.29 µM (≈ 0.477 µg/mL)
CN(C)CC1CCN(c2ccc3c(=O)c(C(=O)O)cn(C4CC4)c3c2)C1 (configuration not stated)	2.873	1.34 µM (≈ 0.476 µg/mL)
CC1(CN)CCN(c2ccc3c(=O)c(C(=O)O)cn(C4CC4)c3c2)C1 (configuration not stated)	3.777	0.167 µM (≈ 0.057 µg/mL)
CN1CCN(c2ccc3c(=O)c(C(=O)O)cn(C4CC4)c3c2)CC1	3.14	0.724 µM (≈ 0.237 µg/mL)
CC1CN(c2ccc3c(=O)c(C(=O)O)cn(C4CC4)c3c2)CCN1 (configuration not stated)	3.14	0.724 µM (≈ 0.237 µg/mL)
CC1CN(c2ccc3c(=O)c(C(=O)O)cn(C4CC4)c3c2)CC(C)N1 (configuration not stated)	3.442	0.362 µM (≈ 0.124 µg/mL)
O=C(O)c1cn(C2CC2)c2cc(N3CCNCC3)ccc2c1=O	3.122	0.754 µM (≈ 0.236 µg/mL)
NC1CCN(c2ccc3c(=O)c(C(=O)O)cn(C4CC4)c3c2)C1 (configuration not stated)	3.122	0.754 µM (≈ 0.236 µg/mL)
